From PubChem BioAssay (NCI)
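Dose response: 5 concentrations. Exposure: 48 h. Format: 96-well plates. Endpoint: linear interpolation; highest concentration if not reached. Definition used: TGI = concentration required for complete inhibition of growth.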

Assays:
Experiment in all cases: NCI tumour cell line growth inhibition, 48 h
[1] = system: P388 leukemia
[2] = system: P388/ADR leukemia
[3] = system: SN12K1 renal
[4] = system: DLD-1 colon
[5] = system: LXFL 529 NSCLC

| SMILES | TGI [1] | TGI [2] | TGI [3] | TGI [4] | TGI [5] |
| --- | --- | --- | --- | --- | --- |
| O=NN1C(c2ccccc2)C2CCCC(C2=O)C1c1ccccc1 (stereo unspecified) | > 64.1 µM | 45.9 µM | > 71.3 µM | > 100 µM | – |
| COc1ccc(NC(=S)NNC(=O)c2nsc3ccccc23)cc1 | – | – | – | – | > 100 µM |
| CCc1c2cc(OC)c(OC)cc2cc2c3cc(OC)c(OC)cc3cc[n+]12 (tested in a mixture with another compound) | – | – | – | > 100 µM | > 76.3 µM |
| c1ccc2c(c1)OCCc1cn[nH]c1-2 | > 100 µM | > 100 µM | > 100 µM | > 100 µM | – |
